Experimental data as given in patent US20210361706A1 (priority 2018, published 2021).
Read-outs that look alike come from different tables or passages of the source.

Tests used:
EO771 tumor [1] = assay type: in vivo, C57BL/6JNarl female mice; settings: for survival rate: twice CTX, FIG. 1B
Experimental: The syngeneic orthotopic EO771 breast cancer mouse model (see Johnstone et al., Disease models & mechanisms, 8(3):237-251 (2015)) was used to evaluate the in vivo treatment efficacy.
C57BL/6JNarl female mice were purchased from National Laboratory Animal Center, Taiwan and housed under specific pathogenic-free condition in the animal facility of Institute of Molecular Biology, Academia Sinica, Taiwan. Mice were used between 8-to-12-week-old.
EO771 cell line (CH3 BioSystems) were cultured in complete medium (RPMI 1640 (Gibco) supplemented with 20 mM pH7.2 HEPES (Sigma-Aldrich), 10% fetal bovine serum (FBS; HyClone) and 1% Penicillin and Streptomycin (PS; Gibco)). B16-F10 melanoma was provided by Dr. Roffler, Steve R. (Institute of Biomedical Sciences, Academia Sinica, Taiwan) and cultured in complete medium (DMEM (Gibco) supplemented with 10% FBS (HyClone) and 1% PS (Gibco)). Tumor cells were cultured at 37° C. incubator with 5% CO2.
Bone marrow (BM) cells were obtained from Tibias and femurs. Red blood cells were lysed by ACK lysis buffer (0.15 M NH4Cl, 10 mM NaHCO3, 1 mM disodium EDTA (pH 7.4)). The BM cells were cultured in 10% FBS RPMI medium containing rmIL-15 for 7 days, and IL-12 was added 16 hours before harvesting. The harvested BM cells were stained with antibodies specific for CD19, H57, NK1.1, CD11 c and B220, and sorted for CD11c^+B220^+ NK cells using FACSAriaII SORP (BD Biosciences; FACS Core, Institute of Molecular Biology, Academia Sinica, Taiwan).
CTX was administrated on day-21 post tumor inoculation. The twice CTX-treatment group received the second CTX injection 6 days after the first treatment. Phosphate-buffered saline (PBS) was used as a negative control.
First, the effects of CTX monotherapy, NK monotherapy, or CTX and NK cell combined therapy on EO771 tumor-bearing mice were examined, following the assays described in Example 1 above. The treatment started on day-21 post tumor inoculation. […] FIG. 2. […] FIG. 2.

EO771 tumor [2] = assay type: in vivo, C57BL/6JNarl female mice
Source text: Next, the effect of CTX monotherapy and CTX/NK cell combined therapy were examined in an EO771 tumor resection mouse model, which mimics patients whose tumor was surgically removed.
Tumor and draining lymph node were resected on day-21 post tumor inoculation, and CTX alone or in combination with NK cells were started two days after the resection. […] FIG. 4. […] FIG. 4. […] FIG. 4. […]

EO771 cells [3] = assay type: in vivo, C57BL/6JNarl female mice; settings: tumor-resected mice
Source text: Following the assays described in Example 1 above, it was examined in this Example whether CTX monotherapy and CTX/NK cell combined therapy would induce protective immune memory under tumor-resected condition. Mice survived after the treatment of primary EO771 tumor were re-challenged with EO771 cells. […] FIG. 5. […] FIG. 5.

EO771 cells [4] = assay: EO771 re-challenge of tumor-bearing mice that survived the primary tumor after treatment
Experimental: The orthotopic syngeneic TMBC model was done by injection of EO771 cells into the 4th mammary fat pad of C57BL/6JNarl female mice. For the tumor-bearing model, each mouse was inoculated with 0.5×10^6 cells and received the first intra-peritoneal injection of CTX after 21 days. The second CTX injection was given 6 days later. Sorted CD11c^+B220^+ NK cells were transferred intravenously around 24 hours after the second CTX treatment, and followed with another NK cell transfer 3-4 days later. For the tumor-resect model, each mouse was inoculated with 0.3×10^6 EO771 cells, and the tumor and draining lymph node were resected 21 days later. CTX/NK treatment started at 48 hours after resection as described in the tumor-bearing model. […] The mice were monitored for survival, body weight, and tumor volume.
Kaplan-Meier survival analyses were performed using GraphPad Prism 7, and the Log-rank test was used to determine significance. Cox proportional hazard model was used to analyze hazard ratio and interaction [24]. P-value≤0.05 was considered statistically significant (*p≤0.05, **p≤0.01, ***p≤0.001, ****p≤0.0001).
To determine whether CTX/NK cell combined therapy would prevent or reduce the risk of tumor recurrence, mice who survived the primary tumor after the treatment were re-challenged with the same tumor cells to mimic cancer recurrence.
The cure rate was estimated by multiplying the primary and re-challenge survival rates.

[5] = tumor-bearing model, reference: no treatment
[6] = tumor-resection model, reference: no treatment (resection only)
[7] = primary survival rate × survival rate after EO771 re-challenge

O=P1(N(CCCl)CCCl)NCCCO1 (stereo not shown) [CTX, cyclophosphamide]
mice survived for at least 120 days (EO771 tumor [1]; CTX once, 150 mg/kg per injection, day-21 post tumor inoculation, FIG. 1A): 1 out of 8
mice survived for at least 120 days (EO771 tumor [1]; CTX twice, 6 days apart, 150 mg/kg per injection, from day 21, FIG. 1A): 5 out of 8
mice survived for at least 120 days (EO771 tumor [1]; treatment started on day-21 post tumor inoculation, FIG. 2): 62%
Primary survival rate % (live/total) (EO771 tumor [1]; tumor-bearing mice, survival post treatment in mice inoculated with tumor the first time): 62 (46/74) %
HR (95% CI), Frailty adjustment (EO771 tumor [1]; [5]): 0.02 (0.009, 0.044)
HR (95% CI), cluster adjustment (EO771 tumor [1]; [5]): 0.024 (0.009, 0.066)
HR (95% CI), without batch adjustment (EO771 tumor [1]; [5]): 0.024 (0.012, 0.051)
survival rate (EO771 tumor [1]; 6 days apart, 125 mg/kg per injection): 11%
survival rate (EO771 tumor [1]; 6 days apart, 150 mg/kg per injection): 62%
survival rate (EO771 tumor [2]; tumor resected mice, treatment started two days after resection, FIG. 4): 86%
Primary survival rate % (live/total) (EO771 tumor [2]; tumor-resected mice, survival post treatment in mice inoculated with tumor the first time): 86 (49/57) %
HR (95% CI), Frailty adjustment (EO771 tumor [2]; [6]): 0.083 (0.036, 0.192)
HR (95% CI), cluster adjustment (EO771 tumor [2]; [6]): 0.086 (0.037, 0.201)
HR (95% CI), without batch adjustment (EO771 tumor [2]; [6]): 0.086 (0.040, 0.186)
Tumor-free rate after EO771 re-challenge % (live/total) (EO771 cells [3]): 30 (7/23) %
estimated cure rate (EO771 cells [3]; EO771 primary and re-challenge survival rates): 26%
survival after EO771 re-challenge (EO771 cells [3]; FIG. 5): 30%
Estimated cure rate with immune protection (%) (EO771 cells [3]; [7]): 26%
Survival rate after EO771 re-challenge % (live/total) (EO771 cells [4]): 90 (26/29) %
survived at least 120 days after the EO771 re-challenge (EO771 cells [4]; FIG. 3): 90%
Estimated cure rate with immune protection (%) (EO771 cells [4]; [7]): 56%
estimated cure rate (EO771 cells [4]; primary × re-challenge survival rates): 56%
